“Also recorded” adds a separate entry of the source. Non-standard residues stand in square brackets, D forms with d. Residues, ends and D or L forms follow the SMILES beside them. *: point of attachment. Phenylacetyl(2,3,4,5,6-F5) = O=C(Cc1c(F)c(F)c(F)c(F)c1F)*; Phe(F5) = N[C@@H](Cc1c(F)c(F)c(F)c(F)c1F)C(=O)O; Phe(4-Cl) = N[C@@H](Cc1ccc(Cl)cc1)C(=O)O; hArg = N=C(N)NCCCC[C@H](N)C(=O)O; 12Ado = NCCCCCCCCCCCC(=O)O; Nle = CCCC[C@H](N)C(=O)O; Abu = CC[C@H](N)C(=O)O

One experiment relates to HCC827 xenograft. The experiment in a line: Xenograft tumor growth in nude mice, lung cancer HCC827. Conditions: 5 μg/day s.c., vs control. In kind it is in vivo. The procedure: (§1) The peptides' activity was compared with GHRH antagonist MIA-602. All statistical analyzses were performed from comparing GHRA antagonists to non-treated tumor (control).
(§2) Peptides and chemicals. GHRH antagonists MIA-602 and AVR-GHRH antagonists (see Table 2 above) were synthesized by solid phase methods and purified by HPLC. The peptides were dissolved in DMSO and further diluted in 10% 1, 2-propanediol. The final concentration of peptides was 50 µg/ml in 10% 1, 2-propanediol containing 0.1% of DMSO.
(§3) Cell culture. Human cancer cell lines including pancreatic (PANC-1 and CFPAC-1), lung (HCC827 and H460), stomach (NCI-N87), prostate (PC3), brest (MX-1 and HCC-1806), colorectal (HT-29), and ovarian (SK-OV-3 and OVCAR-3) were obtained from the American Type Culture Collection (ATCC) and cultured at 37° C. in a humidified 95% air/5% CO2 atmosphere in the medium recommended by ATCC.
(§4) Xenograft models of human cancers in nude mice. Female athymic (NCr nu/nu) nude mice, 5-to 6-weeks-old, obtained from the Envigo labs (Tampa, FL), were housed in laminar airflow cabinets under pathogen-free conditions with a 12-h light/12-h dark schedule, and were fed autoclaved standard chow and water. To generate mice with xenografted tumors, tumor xenografts were initiated by subcutaneous (s.c.) injection of […] human cancer cells into female nude mice. After about 4 weeks the resulting tumors were dissected and collected after removing necrosis tissues. The tumors were then cut into particles with size of ˜3 mm3 and transplanted s.c. by trocar needle into experimental animals. When tumors grew to the size of 50-60 mm3 (by volume), mice were randomized into groups and treated daily for 4-8 weeks by subcutaneous administration of 5 μg of GHRH antagonists MIA-602 or AVR-compounds (2-10 μg as indicated), or vehicle solutions (0.1% DMSO in 10% 1, 2-propanediol) respectively. Tumor sizes were measured weekly.
(§5) Statistical analysis. One-way ANOVA followed by Bonferroni comparison were performed. Data are expressed as Mean±SEM. To determine statistical significance between animal groups, two-tailed Student's t-test was conducted. Differences were considered significant when p<0.05.
(§6) Results. […] FIG. 1A-N represents in vivo inhibition of tumor growth during the treatment with GHRH antagonist MIA-602 and selected AVR antagonists in nude mice xenografted with various human tumors including pancreatic cancer PANC-1 (FIG. 1A) and CFPAC-1 (FIG. 1I); lung cancer HCC827 (FIGS. 1B, C) and H460 (FIG. 1H); stomach cancer N87 (FIGS. 1D-F); colon cancer HT-29 (FIG. 1G); breast cancer MX-1 and HCC-1806 (FIGS. 1J, K); ovarian cancer SK-OV-3 and OVACAR-3 (FIGS. 1L, M) and prostate cancer PC3 (FIG. 1N). See also Table 5.

The test system of the next experiment is PC3 xenograft. In words: Xenograft tumor growth in nude mice, prostate cancer PC3. It counts as in vivo. Conditions: Panel N, 8 weeks, 5 μg/day s.c. The method, then:
as §1, §2, §3, §4
(§7) Statistical analysis. One-way ANOVA followed by Bonferroni comparison were performed. Data are expressed as Mean±SEM. […]

The subject of a further experiment is SK-OV-3 xenograft. The experiment in a line: Xenograft tumor growth in nude mice, ovarian cancer SK-OV-3. It counts as in vivo. Conditions: Panel L, 7 weeks. The method, then:
as §1, §2, §3, §4, §5, §6

Experiment [1] concerns the target T1, membrane GHRH-receptors on human anterior pituitary cells (Homo sapiens, UniProt Q02643).
T1 construct: Human pituitary was purchased from the National Hormone and Peptide Program; tissue National Hormone and Peptide Program; host or cells: human pituitary membrane fractions
T1 sequence (Q02643 23-423): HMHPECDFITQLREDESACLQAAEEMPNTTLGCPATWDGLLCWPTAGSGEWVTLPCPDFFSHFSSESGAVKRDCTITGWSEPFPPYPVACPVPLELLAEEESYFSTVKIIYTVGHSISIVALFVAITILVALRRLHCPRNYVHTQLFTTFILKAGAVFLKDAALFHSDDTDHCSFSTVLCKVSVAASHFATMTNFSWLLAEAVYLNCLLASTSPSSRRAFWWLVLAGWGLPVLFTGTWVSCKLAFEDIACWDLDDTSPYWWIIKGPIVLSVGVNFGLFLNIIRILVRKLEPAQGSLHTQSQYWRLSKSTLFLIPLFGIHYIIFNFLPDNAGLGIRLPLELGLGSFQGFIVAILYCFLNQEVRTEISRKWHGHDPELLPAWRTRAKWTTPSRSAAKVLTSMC
The experiment in a line: Competitive receptor binding, displacement of 125I-[His1,Nle27]-hGH-RH(1-32)NH2 from human pituitary membranes. The method, then: Receptor binding affinities in vitro. Preparation of human pituitary membrane fractions and receptor binding of analogs of GH-RH were performed (Halmos G, Rekasi Z, Szoke B, Schally A V. (1993) Receptor 3:87-97). Human pituitary was purchased from the National Hormone and Peptide Program. […] Relative affinities compared to hGH-RH(1-29)NH2 were calculated as the ratio of IC50 (dose causing 50% inhibition of specific binding to receptors) of the tested peptides to the IC50 of hGH-RH(1-29)NH2. The values were calculated from technical duplicate tubes.
Nineteen new AVR analogs of GHRH were tested in the receptor binding assay. Table 6 presents the IC50 values of GHRH antagonists to membrane GHRH-receptors binding on human anterior pituitary cells.
In general terms: Loss of bound radioactivity is the signal in a displacement assay; it reports binding, not function.

The test system of another experiment is OVCAR-3 xenograft. The experiment in a line: Xenograft tumor growth in nude mice, ovarian cancer OVCAR-3. It counts as in vivo. Particulars: Panel M, 9 weeks. The procedure:
as §1, §2, §3, §4, §7

For another experiment, the system named is rat pituitary cells. In words: Inhibition of GHRH(1-29)NH2-stimulated GH release from rat pituitary cells (ELISA). In kind it is cell-based. Conditions: analog 20 nM. The procedure:
In vitro assessment of the antagonistic activity of GHRH analogs. Rats were decapitated and pituitaries were collected in pre-warmed HBSS (Hanks' Balanced Salt Solution). Tissue was then cut into small pieces and digested in HBSS medium containing 3% BSA, 50 μg/ml gentamycin and 0.5% collagenase for 50 minutes at 37° C. Cells were further dispersed by pipetting and passed through a 100 μm cell strainer with the addition of DMEM containing 50 μg/ml gentamycin, 10% horse serum and 2.5% FBS (growth medium). Cells were harvested at 475×g for 2 minutes, resuspended in fresh growth medium and seeded onto poly-D-lysine-coated 24-well plates (7 pituitaries/plate). Cells were left to recover for 4 days. Growth medium was then replaced with serum-free DMEM for 4 hours and GHRH analogs (at concentration of 20 nM) were added in DMEM containing 0.1% BSA for 30 minutes. Cells were replenished with medium containing the same concentration of the analogs and 1 nM GHRH(1-29)NH2 for 30 minutes. Medium from this step was collected, centrifuged at 800 g for 3 minutes and GH concentration was determined by ELISA (ALPCO Diagnostics, Mill Valley, CA) according to the manufacturer's instruction.

The next experiment deals with HT-29 xenograft. The experiment in a line: Xenograft tumor growth in nude mice, colon cancer HT-29. It counts as in vivo. Particulars: Panel G, 6 weeks. The procedure:
as §1, §2, §3, §4, §5, §6

Another experiment deals with NCI-N87 xenograft. In words: Xenograft tumor growth in nude mice, stomach cancer N87. It counts as in vivo. Conditions: Panel F, 4 weeks, 5 μg/day s.c., vs control. The procedure:
as §1, §2, §3
as §4, with “mice were randomized into groups and treated daily for 4-8 weeks by subcutaneous administration” left out
as §5, §6

As to `CCCC[C@H](NC(=O)[C@@H](NC(=O)[C@H](CC(=O)O)NC(=O)[C@H](CCC(N)=O)NC(=O)[C@H](CC(C)C)NC(=O)[C@H](CC(C)C)NC(=O)[C@H](CCCCN)NC(=O)[C@H](CCCNC(=N)N)NC(=O)[C@H](C)NC(=O)[C@H](CO)NC(=O)[C@H](CC(C)C)NC(=O)[C@H](CCC(N)=O)NC(=O)[C@H](CC)NC(=O)[C@H](CC(C)C)NC(=O)[C@@H](NC(=O)[C@H](CCCCN)NC(=O)[C@H](CCCNC(=N)N)NC(=O)[C@H](Cc1c(F)c(F)c(F)c(F)c1F)NC(=O)[C@H](CCCCNC(=N)N)NC(=O)[C@H](C)NC(=O)[C@@H](NC(=O)[C@H](Cc1ccc(Cl)cc1)NC(=O)[C@@H](NC(=O)[C@H](C)NC(=O)[C@H](CC(=O)O)NC(=O)[C@@H](CCCNC(=N)N)NC(=O)[C@H](Cc1ccc(O)cc1)NC(=O)CCCCCCCCCCCNC(=O)Cc1c(F)c(F)c(F)c(F)c1F)[C@@H](C)CC)[C@@H](C)O)C(C)C)[C@@H](C)CC)C(=O)N[C@H](CCCNC(=N)N)C(=O)N[C@@H](CCCCNC(=N)N)C(=O)NCCCCCCCCCCCC(N)=O` [AVR-353, 5FPhAC-Ada-Tyr-DArg-Asp-Ala-Ile-Cpa-Thr-Ala-Har-5FPhe-Arg-Lys-Val-Leu-Abu-Gln-Leu-Ser-Ala-Arg-Lys-Leu-Leu-Gln-Asp-Ile-Nle-DArg-Har-Ada-NH2] ({Phenylacetyl(2,3,4,5,6-F5)-12Ado}-Y[dR]DAI[Phe(4-Cl)]TA[hArg][Phe(F5)]RKVL[Abu]QLSARKLLQDI[Nle][dR][hArg][12Ado]-NH2), the % Inhibition (in general, the share of the control response that was lost under treatment) came to 71.0% in the experiment on HCC827 xenograft (Panel B, 7 weeks); 50.0% with HCC827 xenograft (Panel C, 8 weeks); 65.0% in the experiment with NCI-N87 xenograft. Moreover, the “Tumor Growth %” value in the experiment with PC3 xenograft is 496.7%; in the experiment with SK-OV-3 xenograft (2.5 μg/day s.c.), 1056.0%; in the experiment with SK-OV-3 xenograft (5 μg/day s.c.) it was 910.7%; in the experiment on OVCAR-3 xenograft (2.5 μg/day s.c.) it was 357.0%; with OVCAR-3 xenograft (5 μg/day s.c.) it was 255.2%; in the experiment with HT-29 xenograft (2 μg/day s.c.) it was 549.30%. Besides, the “Tumor Growth %” value in the experiment with HT-29 xenograft (5 μg/day s.c.) came to 494.70%. Also, the “Binding affinity to membrane receptors of human pituitary cells” value in experiment [1] is recorded as “higher binding affinity in comparison to MIA-602; also recorded: highest binding affinities”. In addition, in the experiment on rat pituitary cells, the “Inhibitory effect on the release of GH compared with MIA-602” value is reported as “higher inhibitory effects than MIA-602”.

For `CCCC[C@H](NC(=O)[C@@H](NC(=O)[C@H](CC(=O)O)NC(=O)[C@H](CCC(N)=O)NC(=O)[C@H](CC(C)C)NC(=O)[C@H](CC(C)C)NC(=O)[C@H](CCCCN)NC(=O)[C@H](CCCNC(=N)N)NC(=O)[C@H](C)NC(=O)[C@H](CO)NC(=O)[C@H](CC(C)C)NC(=O)[C@H](CCC(N)=O)NC(=O)[C@H](CC)NC(=O)[C@H](CC(C)C)NC(=O)[C@@H](NC(=O)[C@H](CCCCN)NC(=O)[C@H](CCCNC(=N)N)NC(=O)[C@H](Cc1c(F)c(F)c(F)c(F)c1F)NC(=O)[C@H](CCCCNC(=N)N)NC(=O)[C@H](C)NC(=O)[C@@H](NC(=O)[C@H](Cc1ccc(Cl)cc1)NC(=O)[C@@H](NC(=O)[C@H](C)NC(=O)[C@H](CC(=O)O)NC(=O)[C@@H](CCCNC(=N)N)NC(=O)[C@H](Cc1ccc(O)cc1)NC(=O)CCCCCCCCCCCNC(=O)Cc1c(F)c(F)c(F)c(F)c1F)[C@@H](C)CC)[C@@H](C)O)C(C)C)[C@@H](C)CC)C(=O)N[C@H](CCCNC(=N)N)C(=O)N[C@@H](CCCCNC(=N)N)C(=O)NCCCCCCCCCCCC(=O)NC` [AVR-354] ({Phenylacetyl(2,3,4,5,6-F5)-12Ado}-Y[dR]DAI[Phe(4-Cl)]TA[hArg][Phe(F5)]RKVL[Abu]QLSARKLLQDI[Nle][dR][hArg][12Ado]-NHMe), the results for the “Tumor Growth %” value in the experiment on PC3 xenograft and in the experiment on HT-29 xenograft (5 μg/day s.c.) were 343.6% and 417.90%, respectively. Besides, in experiment [1], the “Binding affinity to membrane receptors of human pituitary cells” value is on record as “higher binding affinity in comparison to MIA-602; also recorded: highest binding affinities”. Moreover, in experiment [1] (human anterior pituitary membranes, mean of two to three determinations, read-out: IC50), the concentration for half-maximal inhibition (IC50) – broadly, the concentration that gives 50% inhibition – amounted to 0.14 nM.

For the origin of these results see US11993640B2, “Treating inflammatory lung disease” (United States Government as represented by the Department …, priority 2019, dated 2024).
